# Structures can show the parent of a compound that is named as a salt. Where two headings read alike, the source gives them in different places.
# Key:
# [1] = format: physicochemical
# Excerpt: |Thermal stability data: for crystalline calcium |pseudomate dihydrate, amorphous calcium pseudomonate |Percentage |Initial |Potency |after |Storage ** | ** Expressed as percentage of initial purity.
# Bacillus subtilis = test: In vitro MIC against human bacteria, nutrient agar with 5% chocolated horse blood; format: cell-based; conditions: strain 6633, 18 hours at 37° C.
# Description: (§1) The activity of the compounds of the Examples against various bacteria which are important in diseases of humans, was assayed in vitro using serial dilutions in nutrient agar with 5% chocolated horse blood.
# Haemophilus influenzae = test: as above; format: cell-based; conditions: 18 hours at 37° C.
# Description: as §1
# S.agalactiae = test: as above; format: cell-based; conditions: 18 hours at 37° C.
# Description: as §1
# S.aureus = test: as above; format: cell-based; conditions: Staphylococcus aureus, 18 h, 18 hours at 37° C.
# Description: as §1
# S.pneumoniae = test: as above; format: cell-based; conditions: Streptococcus pneumoniae; strain CN33; 18 hours at 37° C.
# Description: as §1
# E.coli [2] = test: as above; format: cell-based; conditions: Escherichia coli, 18 hours at 37° C.
# Description: as §1
# R.mirabilis = test: as above; format: cell-based; conditions: strain 889; 18 hours at 37° C.
# Description: as §1
# Corynebacterium xerosis = test: as above; format: cell-based; conditions: strain 9755, 18 hours at 37° C.
# Description: as §1
# S.faecalis = test: as above; format: cell-based; conditions: 18 hours at 37° C.
# Description: as §1
# Streptococcus Spp = test: as above; format: cell-based; conditions: 18 hours at 37° C.
# Description: as §1
# Sarcina lutea = test: as above; format: cell-based; conditions: Micrococcus luteus; strain 8340; 18 hours at 37° C.
# Description: as §1
# P.aeruginosa = test: as above; format: cell-based; conditions: Pseudomonas aeruginosa; strain 10662; 18 hours at 37° C.
# Description: as §1
# K.aerogenes = test: as above; format: cell-based; conditions: Klebsiella aerogenes; strain A; 18 hours at 37° C.
# Description: as §1
# S.pyogenes = test: as above; format: cell-based; conditions: Streptococcus pyogenes, 18 h, 18 hours at 37° C.
# Description: as §1
# Pasteurella multocida = test: as above; format: cell-based; conditions: strain 1633, 18 hours at 37° C.
# Description: as §1
# Neisseria catarrhalis = test: as above; format: cell-based; conditions: strain 1502, 18 hours at 37° C.
# Description: as §1
# M.hyosynoviae = test: In vitro MIC against Mycoplasma, Friis broth agarose; format: cell-based; conditions: 144 h; strain ATCC 25591; 6 days at 37° C.
# Description: (§2) The activity of the compounds of the Examples against various mycoplasmal organisms was assayed in vitro in Friis broth solidified with 0.9% agarose and inoculated with 10^3 to 10^5 C.F.U. The minimum inhibitory concentrations (MIC's) were determined after incubation for 6 days at 37° C. and are shown in Table 1.
# M.bovis = test: as above; format: cell-based; conditions: NCTC10131, 144 h
# Description: as §2
# M.gallisepticum = test: as above; format: cell-based; conditions: Mycoplasmoides gallisepticum, 144 h; strain S6; 6 days at 37° C.
# Description: as §2
# M.pneumoniae = test: as above; format: cell-based; conditions: Mycoplasmoides pneumoniae, ATCC15492, 144 h; strain ATCC 15492; 6 days at 37° C.
# Description: as §2
# M.bovigenitalium = test: as above; format: cell-based; conditions: 144 h; strain ATCC 14173; 6 days at 37° C.
# Description: as §2
# M.hyorhinis = test: as above; format: cell-based; conditions: Mesomycoplasma hyorhinis, 6 days at 37° C.
# Description: as §2
# M.hyopneumoniae = test: as above; format: cell-based
# Description: as §2
# Strep.suis (group D) = test: In vitro MIC against veterinary bacteria, Diagnostic Sensitivity Test Agar; format: cell-based; conditions: Streptococcus suis; strain SPS11; 18 hours at 37° C.
# Description: (§3) The activity of the compounds of the Examples against various veterinarily important bacteria, was assayed in vitro using two-fold serial dilutions in Diagnostic Sensitivity Test Agar inoculated with 10^4 organisms.
# Moraxella Bovis = test: as above; format: cell-based; conditions: 18 hours at 37° C.
# Description: as §3
# Strep.agalactiae = test: as above; format: cell-based; conditions: Streptococcus agalactiae; strain SPA1; 18 hours at 37° C.
# Description: as §3
# E.coli [3] = test: as above; format: cell-based; conditions: Escherichia coli, 18 hours at 37° C.
# Description: as §3
# Staph.aureus = test: as above; format: cell-based; conditions: Staphylococcus aureus, 18 h, 18 hours at 37° C.
# Description: as §3
# Strep.uberis = test: as above; format: cell-based; conditions: Streptococcus uberis; strain SPU1; 18 hours at 37° C.
# Description: as §3
# Bord.bronchiseptica = test: as above; format: cell-based; conditions: Bordetella bronchiseptica, 18 h, 18 hours at 37° C.
# Description: as §3
# Past.haemolytica = test: as above; format: cell-based; conditions: Mannheimia haemolytica; strain PA5; 18 hours at 37° C.
# Description: as §3
# Corynebacterium pyogenes = test: as above; format: cell-based; conditions: Trueperella pyogenes; strain CY1; 18 hours at 37° C.
# Description: as §3
# B.subtilis = test: as above; format: cell-based; conditions: Bacillus subtilis, ATCC6633; strain ATCC 6633; 18 hours at 37° C.
# Description: as §3
# Past.multocida = test: as above; format: cell-based; conditions: Pasteurella multocida; strain PA1; 18 hours at 37° C.
# Description: as §3
# S.typhimurium = test: as above; format: cell-based; conditions: Salmonella enterica, strain S18, 18 hours at 37° C.
# Description: as §3
# Strep.dysgalaciae = test: as above; format: cell-based; conditions: strain SPD1; 18 hours at 37° C.
# Description: as §3
# [4] = system: Erysipelothrix rhusiopathiae; test: as above; format: cell-based; conditions: NCTC8163, strain NCTC 8163, 18 hours at 37° C.
# Description: as §3
# S.dublin = test: as above; format: cell-based; conditions: Salmonella enterica; strain S7; 18 hours at 37° C.
# Description: as §3
# Water solubility = format: physicochemical; conditions: amorphous form
compound,measurement,setting,value
"CC(=CC(=O)OCCCCCCCCC(=O)O)CC1OCC(CC2OC2C(C)C(C)O)C(O)C1O (centres unmarked) [crystalline calcium pseudomonate, calcium pseudomonate]",thermal stability (in words),[1],outstandingly good thermal stability
"CC(=CC(=O)OCCCCCCCCC(=O)O)CC1OCC(CC2OC2C(C)C(C)O)C(O)C1O (centres unmarked) [Calcium Pseudomonate dihydrate, Calcium Pseudomonate Dihydrate]",MIC,Bacillus subtilis,0.5 µg/mL
same,MIC,"Haemophilus influenzae; Haemophilus influenzae, strain Q1, read-out: MIC",0.13 µg/mL
same,MIC,Haemophilus influenzae; strain Wy21,0.13 µg/mL
same,MIC,"S.agalactiae; Streptococcus agalactiae, strain 2788-B, read-out: MIC",0.5 µg/mL
same,MIC,S.agalactiae; strain 2798B,0.5 µg/mL
same,MIC,S.agalactiae; strain 2866B,0.5 µg/mL
same,MIC,"S.aureus; strain Oxford, read-out: MIC",0.13 µg/mL
same,MIC,"S.aureus; strain Russell, read-out: MIC",0.25 µg/mL
same,MIC,"S.aureus; strain T2P-, read-out: MIC",0.25 µg/mL
same,MIC,S.aureus; strain T22P-,0.25 µg/mL
same,MIC,S.aureus; strain T63P+,0.25 µg/mL
same,MIC,S.aureus; strain T67P+,0.5 µg/mL
same,MIC,"S.aureus; strain V331, read-out: MIC",0.5 µg/mL
same,MIC,"S.aureus; strain V352, read-out: MIC",0.5 µg/mL
same,MIC,"S.aureus; strain W2827, read-out: MIC",0.25 µg/mL
same,MIC,S.pneumoniae,0.03 µg/mL
same,MIC,"E.coli [2]; NCTC10418, strain NCTC 10418",128 µg/mL
same,MIC,E.coli [2]; strain ESS,2 µg/mL
same,MIC,R.mirabilis,128 µg/mL
same,MIC,Corynebacterium xerosis,> 128 µg/mL
same,MIC,"S.faecalis; Enterococcus faecalis, strain Tunisia, read-out: MIC",128 µg/mL
same,MIC,S.faecalis; strain I(ER+),128 µg/mL
same,MIC,S.faecalis; strain I,128 µg/mL
same,MIC,S.faecalis; strain PAGE,128 µg/mL
same,MIC,"Streptococcus Spp; Streptococcus, S.spp. strain 64/848-C, read-out: MIC",0.5 µg/mL
same,MIC,Streptococcus Spp; strain 2373C,0.5 µg/mL
same,MIC,Streptococcus Spp; strain 2465C,0.5 µg/mL
same,MIC,Streptococcus Spp; strain 2761C,0.5 µg/mL
same,MIC,Sarcina lutea,> 128 µg/mL
same,MIC,P.aeruginosa,> 128 µg/mL
same,MIC,K.aerogenes,> 128 µg/mL
same,MIC,S.pyogenes; strain 1947A,0.13 µg/mL
same,MIC,S.pyogenes; strain 1953-A,0.13 µg/mL
same,MIC,S.pyogenes; strain BcA,0.5 µg/mL
same,MIC,S.pyogenes; strain CN10A,0.03 µg/mL
same,MIC,Pasteurella multocida,0.5 µg/mL
same,MIC,Neisseria catarrhalis,0.13 µg/mL
same,MIC,M.hyosynoviae,0.5 µg/mL
same,MIC,M.bovis,0.025 µg/mL
same,MIC,M.gallisepticum,> 10 µg/mL
same,MIC,M.pneumoniae,5 µg/mL
same,MIC,M.bovigenitalium,0.1 µg/mL
same,MIC,"M.hyorhinis; ATCC23234, 144 h, strain ATCC 23234",1 µg/mL
same,MIC,"M.hyorhinis; ATCC25021, 144 h, strain ATCC 25021",1 µg/mL
same,MIC,"M.hyopneumoniae; Mesomycoplasma hyopneumoniae, 144 h, mean of M.hyopneumoniae strains, read-out: MIC, MEAN",2.5 µg/mL
same,MIC,"M.hyopneumoniae; Mesomycoplasma hyopneumoniae, 144 h, strain JF 435, 6 days at 37° C., read-out: MIC",2.5 µg/mL
same,MIC,"M.hyopneumoniae; Mesomycoplasma hyopneumoniae, NCTC10110, 144 h, strain NCTC 10110, 6 days at 37° C., read-out: MIC",2.5 µg/mL
same,MIC,"M.hyopneumoniae; strain ATTCC 25095, 6 days at 37° C.",2.5 µg/mL
same,MIC,"M.hyopneumoniae; strain HK (2), 6 days at 37° C.",2.5 µg/mL
same,MIC,"M.hyopneumoniae; strain J2206/183b, 6 days at 37° C.",2.5 µg/mL
same,MIC,"M.hyopneumoniae; strain LABER, 6 days at 37° C.",2.5 µg/mL
same,MIC,"M.hyopneumoniae; strain MS16, 6 days at 37° C.",2.5 µg/mL
same,MIC,"M.hyopneumoniae; strain PW/C/210, 6 days at 37° C.",2.5 µg/mL
same,MIC,"M.hyopneumoniae; strain Str 11, 6 days at 37° C.",2.5 µg/mL
same,MIC,"M.hyopneumoniae; strain TAM 6N, 6 days at 37° C.",2.5 µg/mL
same,MIC,"M.hyopneumoniae; strain UCD1, 6 days at 37° C.",2.5 µg/mL
same,Percentage Initial Potency after Storage,[1]; 192 h,97%
same,Percentage Initial Potency after Storage,[1]; 240 h,98.9%
same,MIC,Strep.suis (group D),0.63 µg/mL
same,MIC,Moraxella Bovis,0.31 µg/mL
same,MIC,Strep.agalactiae,0.16 µg/mL
same,MIC,"E.coli [3]; NCTC10418, strain NCTC 10418",80 µg/mL
same,MIC,E.coli [3]; strain E1,80 µg/mL
same,MIC,Staph.aureus; strain 152 (pen.sens.),0.16 µg/mL
same,MIC,Staph.aureus; strain (Mexi),0.16 µg/mL
same,MIC,Staph.aureus; strain B4 (pen.resistant),0.16 µg/mL
same,MIC,Staph.aureus; strain M60,0.16 µg/mL
same,MIC,Staph.aureus; strain Oxford,< 0.1 µg/mL
same,MIC,Strep.uberis,0.07 µg/mL
same,MIC,Bord.bronchiseptica; strain B08,5 µg/mL
same,MIC,Bord.bronchiseptica; strain B09,1.3 µg/mL
same,MIC,Past.haemolytica,2.5 µg/mL
same,MIC,Corynebacterium pyogenes,> 80 µg/mL
same,MIC,B.subtilis,0.07 µg/mL
same,MIC,Past.multocida,0.07 µg/mL
same,MIC,S.typhimurium,80 µg/mL
same,MIC,Strep.dysgalaciae,0.16 µg/mL
same,MIC,[4],20 µg/mL
same,MIC,S.dublin,80 µg/mL
"CC(=CC(=O)OCCCCCCCCC(=O)O)CC1OCC(CC2OC2C(C)C(C)O)C(O)C1O (centres unmarked) [Anhydrous Amorphous Calcium Salt, Amorphous Anhydrous Calcium Pseudomonate A]",water solubility (in words),Water solubility,sparingly water soluble
same,thermal stability (in words),[1],poor thermal stability
same,Percentage Initial Potency after Storage,[1]; 192 h,29%
same,Percentage Initial Potency after Storage,[1]; 240 h,83.3%
"C/C(=C\C(=O)OCCCCCCCCC(=O)O)C[C@@H]1OC[C@H](C[C@@H]2O[C@H]2[C@@H](C)[C@H](C)O)[C@@H](O)[C@H]1O [Pseudomonic Acid, Pseudomonic acid]",Percentage Initial Potency after Storage,[1]; 192 h,0%
same,Percentage Initial Potency after Storage,[1]; 240 h,77.9%

# — patent US5191093A, “Process for preparing crystalline calcium pseudomonate” (Beecham Group p.l.c., priority 1990, dated 1993)
